Measurements published in article PMC4114195, “Identification of a cyclic-di-GMP-modulating response regulator that impacts biofilm formation in a model sulfate reducing bacterium” (Frontiers in Microbiology, 2014).

Experiments:
Format in all cases: biochemical
DVU0330 HD domain = target: T1, DVU0330 HD domain (Nitratidesulfovibrio vulgaris, UniProt Q72F84); test: absorbance at […] nm, phosphodiesterase assay; settings: 5 mM bis-pNPP, 1 or 10 mM MnCl2, pH 8.0
T1 construct: gene DVU_0330; isolated HD (HDOD, no GYP motif) domain 230-412; N-terminal 8xHis-Strep II-MBP tag cut by TEV; E. coli
T1 sequence (Q72F84 230-412): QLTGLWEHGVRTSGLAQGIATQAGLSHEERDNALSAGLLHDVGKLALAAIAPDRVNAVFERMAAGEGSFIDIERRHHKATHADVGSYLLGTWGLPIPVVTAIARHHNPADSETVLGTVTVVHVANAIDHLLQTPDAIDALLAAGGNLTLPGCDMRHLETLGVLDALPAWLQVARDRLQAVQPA

DVU1181 HD-GYP domain = target: T2, DVU1181 HD-GYP domain (Nitratidesulfovibrio vulgaris, UniProt Q72CV2); test: absorbance at […] nm, phosphodiesterase assay; settings: 5 mM bis-pNPP, 1 or 10 mM MnCl2, pH 8.0
T2 construct: gene DVU_1181; isolated HD-GYP domain 176-356; N-terminal 8xHis-Strep II-MBP tag cut by TEV; E. coli
T2 sequence (Q72CV2 176-356): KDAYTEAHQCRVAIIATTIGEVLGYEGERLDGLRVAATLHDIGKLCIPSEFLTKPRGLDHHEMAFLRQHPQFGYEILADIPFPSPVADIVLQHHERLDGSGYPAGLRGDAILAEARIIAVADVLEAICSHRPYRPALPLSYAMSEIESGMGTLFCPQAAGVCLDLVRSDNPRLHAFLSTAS

DVU2933 HD-GYP domain = target: T3, DVU2933 HD-GYP domain (Nitratidesulfovibrio vulgaris, UniProt Q727C2); test: HILIC-TOF MS, c-di-GMP hydrolysis; settings: 100 μM c-di-GMP, 10 mM MnCl2, pH 8.0, room temperature, 24 h
T3 construct: gene DVU_2933; isolated HD-GYP domain 282-458; N-terminal 6xHis tag cut by TEV; E. coli
T3 sequence (Q727C2 282-458): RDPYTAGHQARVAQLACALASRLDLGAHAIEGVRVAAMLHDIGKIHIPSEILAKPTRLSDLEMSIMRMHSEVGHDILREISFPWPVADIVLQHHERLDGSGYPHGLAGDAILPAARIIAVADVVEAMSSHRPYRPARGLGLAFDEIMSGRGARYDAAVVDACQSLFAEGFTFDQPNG

DVU0722 HD-GYP domain = target: T4, DVU0722 HD-GYP domain (Nitratidesulfovibrio vulgaris, UniProt Q72E57); test: HILIC-TOF MS, c-di-GMP hydrolysis; settings: 100 μM c-di-GMP, 10 mM MnCl2, pH 8.0, room temperature, 24 h
T4 construct: gene DVU_0722; isolated HD-GYP domain 336-518; N-terminal 8xHis-Strep II-MBP tag cut by TEV; E. coli
T4 sequence (Q72E57 336-518): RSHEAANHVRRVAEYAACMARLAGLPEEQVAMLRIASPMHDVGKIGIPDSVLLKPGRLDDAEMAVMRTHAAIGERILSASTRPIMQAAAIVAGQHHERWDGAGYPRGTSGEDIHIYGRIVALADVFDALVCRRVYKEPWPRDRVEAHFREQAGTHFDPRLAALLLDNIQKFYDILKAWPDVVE

DVU0408 [1] = target: T5, DVU0408 (Nitratidesulfovibrio vulgaris, UniProt Q72F10); test: HPLC, phosphodiesterase assay, pGpG formed; settings: 100 μM c-di-GMP, 2 mM MnCl2
T5 construct: gene DVU_0408; full length (gene 2148 bp, about 715 residues), GGDEF-EAL response regulator; E. coli
T5 sequence (Q72F10 1-715): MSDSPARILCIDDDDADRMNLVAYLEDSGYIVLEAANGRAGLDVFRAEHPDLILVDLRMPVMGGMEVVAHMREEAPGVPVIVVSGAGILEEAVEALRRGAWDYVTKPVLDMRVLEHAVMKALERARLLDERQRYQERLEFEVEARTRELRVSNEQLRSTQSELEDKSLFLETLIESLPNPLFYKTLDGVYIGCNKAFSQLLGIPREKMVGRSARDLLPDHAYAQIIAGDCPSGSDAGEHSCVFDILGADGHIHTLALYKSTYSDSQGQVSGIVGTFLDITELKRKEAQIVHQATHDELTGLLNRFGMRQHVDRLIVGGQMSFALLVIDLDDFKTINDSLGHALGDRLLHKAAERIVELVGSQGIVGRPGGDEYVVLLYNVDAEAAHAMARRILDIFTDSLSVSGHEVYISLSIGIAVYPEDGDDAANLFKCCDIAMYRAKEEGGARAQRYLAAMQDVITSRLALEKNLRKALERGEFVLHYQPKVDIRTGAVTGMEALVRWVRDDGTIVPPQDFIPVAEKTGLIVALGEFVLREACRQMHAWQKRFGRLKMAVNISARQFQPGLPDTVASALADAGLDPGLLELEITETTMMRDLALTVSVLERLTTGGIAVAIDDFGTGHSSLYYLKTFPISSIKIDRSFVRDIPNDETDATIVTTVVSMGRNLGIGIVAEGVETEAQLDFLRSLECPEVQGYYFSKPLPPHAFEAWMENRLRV

DVUA0086 HD-GYP domain = target: T6, DVUA0086 HD-GYP domain (Nitratidesulfovibrio vulgaris, UniProt Q72WK3); test: HILIC-TOF MS, c-di-GMP hydrolysis; settings: 100 μM c-di-GMP, 10 mM MnCl2, pH 8.0, room temperature, 24 h
T6 construct: isolated HD-GYP domain 164-363; N-terminal 6xHis tag cut by TEV; E. coli; gene on native plasmid pDV1
T6 sequence (Q72WK3 164-363): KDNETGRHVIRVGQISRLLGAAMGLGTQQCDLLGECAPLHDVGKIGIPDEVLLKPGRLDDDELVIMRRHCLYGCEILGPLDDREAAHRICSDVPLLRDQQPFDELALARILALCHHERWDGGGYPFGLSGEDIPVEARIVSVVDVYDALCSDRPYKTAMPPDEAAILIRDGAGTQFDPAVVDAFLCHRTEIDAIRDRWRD

DVU0408 [2] = target: T5, DVU0408; test: HPLC, c-di-GMP hydrolysis with added GTP; settings: 100 μM GTP, 100 μM c-di-GMP, 2 mM MnCl2; proposed allosteric at inactive GGDEF domain

## O=[N+]([O-])c1ccc(OP(=O)(O)Oc2ccc([N+](=O)[O-])cc2)cc1 [bis-pNPP]
DVU0330 HD domain
  absorbance at 410 nm, phosphodiesterase assay: DVU0330 that lacks the GYP motif showed very low activity
DVU1181 HD-GYP domain
  absorbance at 410 nm, phosphodiesterase assay: DVU0722 and DVU1181 showed slower activity

## Nc1nc2c(ncn2[C@@H]2O[C@@H]3COP(=O)(O)O[C@H]4[C@@H](O)[C@H](n5cnc6c(=O)[nH]c(N)nc65)O[C@@H]4COP(=O)(O)O[C@H]3[C@H]2O)c(=O)[nH]1 [c-di-GMP]
DVU2933 HD-GYP domain
  HILIC-TOF MS, c-di-GMP hydrolysis: DVU2933 protein had lower activity, but again pGpG was the main product formed.
DVU0722 HD-GYP domain
  HILIC-TOF MS, c-di-GMP hydrolysis: DVU0722 protein also hydrolyzed most of the c-di-GMP to pGpG.
DVU0408 [1]
  HPLC, phosphodiesterase assay, pGpG formed: it did have PDE activity against c-di-GMP
DVUA0086 HD-GYP domain
  HILIC-TOF MS, c-di-GMP hydrolysis: DVUA0086 protein had maximum activity and completely hydrolyzed c-di-GMP

## Nc1nc2c(ncn2[C@@H]2O[C@H](COP(=O)(O)OP(=O)(O)OP(=O)(O)O)[C@@H](O)[C@H]2O)c(=O)[nH]1 [GTP]
DVU0408 [2]
  HPLC, c-di-GMP hydrolysis with added GTP: There was an increase in the pGpG peak upon addition of GTP.
